Reference: BindingDB's records for doi:10.1080/14756360400002007 (Crefsip, 2005)

How the values were obtained:
Glutamate--tRNA ligase = target: T1, Glutamate--tRNA ligase (Escherichia coli (strain K12), UniProt P04805); experiment: Determination of the Inhibition Type and Constant (Ki); details: pH 7.2; 37 °C
T1 sequence (P04805 whole entry): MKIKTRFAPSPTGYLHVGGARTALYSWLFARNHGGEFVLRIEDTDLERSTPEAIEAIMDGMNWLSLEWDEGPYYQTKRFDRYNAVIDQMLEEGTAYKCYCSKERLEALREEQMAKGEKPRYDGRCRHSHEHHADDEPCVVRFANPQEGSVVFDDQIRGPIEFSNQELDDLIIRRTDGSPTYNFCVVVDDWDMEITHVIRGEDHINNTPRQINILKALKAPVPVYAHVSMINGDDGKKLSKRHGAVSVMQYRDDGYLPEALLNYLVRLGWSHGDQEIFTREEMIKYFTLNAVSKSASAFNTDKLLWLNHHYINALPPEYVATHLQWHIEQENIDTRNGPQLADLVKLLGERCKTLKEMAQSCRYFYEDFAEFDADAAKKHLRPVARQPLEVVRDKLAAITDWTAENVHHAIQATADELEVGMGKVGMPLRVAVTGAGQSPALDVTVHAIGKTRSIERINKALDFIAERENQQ
Experimental: (§1) The Km and Kappm for the amino acid substrate were first calculated from Lineweaver-Burk plots. The Ki values were calculated from the Kappm vs [I] plot. The Ki values for the inhibitors with respect for the amino acid substrates were determined by measuring the apparent Km for the amino acid in the presence of saturating concentrations of both ATP and tRNA, and of various fixed concentrations of the inhibitor.

[1] = target: T2, Probable glutamate--tRNA ligase, mitochondrial (Mus musculus, UniProt Q9CXJ1); experiment: as above; details: pH 8; 30 °C
T2 sequence (Q9CXJ1 whole entry): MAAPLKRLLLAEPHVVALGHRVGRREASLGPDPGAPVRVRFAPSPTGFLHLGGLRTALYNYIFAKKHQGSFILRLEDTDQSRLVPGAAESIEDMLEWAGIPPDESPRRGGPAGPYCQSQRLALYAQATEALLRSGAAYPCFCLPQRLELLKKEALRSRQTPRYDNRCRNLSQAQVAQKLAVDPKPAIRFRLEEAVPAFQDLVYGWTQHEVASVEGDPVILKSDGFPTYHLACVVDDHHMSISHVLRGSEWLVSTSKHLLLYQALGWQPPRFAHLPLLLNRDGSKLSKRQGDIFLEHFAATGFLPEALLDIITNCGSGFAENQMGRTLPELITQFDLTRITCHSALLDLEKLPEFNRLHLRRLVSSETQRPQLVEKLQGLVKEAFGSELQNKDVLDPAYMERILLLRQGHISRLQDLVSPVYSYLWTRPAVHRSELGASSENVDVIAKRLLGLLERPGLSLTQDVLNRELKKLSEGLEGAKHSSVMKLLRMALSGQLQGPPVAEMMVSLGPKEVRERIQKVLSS
Experimental: as §1

## Nc1ncnc2c1ncn2[C@@H]1O[C@H](COS(=O)(=O)NC(=O)[C@@H](N)CCC(=O)O)[C@@H](O)[C@H]1O [5-O-[N-(L-Glutamyl)-sulfamoyl]adenosine 5]
Glutamate--tRNA ligase
  Ki: 2.8 nM
[1]
  Ki: 70 nM

## Nc1ncnc2c1ncn2[C@@H]1O[C@H](COS(=O)(=O)NC(=O)[C@@H]2CCC(=O)N2)[C@@H](O)[C@H]1O [(5S)-5-{[({[(2R,3S,4R,5R)-5-(6-amino-9H-purin-9-yl)-3,4-dihydroxyoxolan-2-yl]methoxy}sulfonyl)amino]carbonyl}pyrrolidin-2-one]
Glutamate--tRNA ligase
  Ki: 15000 nM
